In patent US20060100175A1, “Novel therapeutic use of low molecular weight heparins” (Aventis Pharma S.A., priority 1998, published 2006):

Test system: motoneurons plated on astrocyte monolayers
Assay: Potentiation effect on the stimulation of the trophic motoneuron activity (SIN-1 treated astrocyte monolayers)
Format: cell-based, rat
Details: SIN-1 2 mM, 1 hour on astrocyte monolayers
Method: The cultures enriched in motoneurons are prepared using the centrifugation method described by R. L. Schnaar and A. E. Schaffner, J. Neurosci., 1, 204-217 (1981) and modified by W. Camu and C. E. Henderson, J. Neurosci. Methods, 44, 59-70 (1992). Spinal cords from E15 rat embryos are dissected sterilely and the spinal notochords are removed. They are then cut up and incubated for 15 minutes at 37° C. in PBS (phosphate buffered saline: 137 mM NaCl, 2.68 mM KCl, 6.45 mM Na2HPO4, 1.47 mM KH2PO4) to which 0.05% of trypsin has been added. The dissociation of the cells is completed by trituration with the end of a 1 ml pipette in the culture medium supplemented with bovine serum albumin (BSA) and with DNAase. The cell suspension is spread onto a band of 6.5% weight/volume metrizamide in L15 medium (sold by Gibco BRL) and centrifuged at 500 g for 15 minutes. The band of the interface containing the motoneurons is recovered. […]
The number of motoneurons is evaluated by counting labeled cells in a surface area of 1.44 cm^2 under a microscope giving a 200-fold magnification. The values are expressed as a number of motoneurons per cm^2 or a percentage of the number of motoneurons present in the cultures maintained with trophic factors (BDNF/NT5 […]). […]

[NH-]c1c[n+](N2CCOCC2)no1 [SIN-1]
Number of motoneurons % with respect to the control: 125%
